Data taken from ChEMBL document CHEMBL5357025, “Perceptual Modifying Compounds and Their Potential Therapeutic Applications in Neuropsychiatric Disorders” (ACS Med Chem Lett, 2024).

Assays:
[1] = Metabolic stability in pooled human liver microsomes assessed as half-life at 1 uM preincubated with compound followed by NADPH addition and measured upto 45 mins by LC-MS/MS analysis; format: ADME, Microsome
[2] = Metabolic stability in pooled human liver microsomes assessed as intrinsic clearance at 1 uM preincubated with compound followed by NADPH addition and measured upto 45 mins by LC-MS/MS analysis; format: ADME, Microsome; details: read-out: CLH

Structure (SMILES)	half-life at 1 µM [1] [min]	microsomal CLint at 1 µM [2] [µL/min/mg]
[2H]c1[nH]c2cccc3c2c1C[C@@H]1C3=C[C@@H](C(=O)N(CC)CC)CN1C	77.7	17.8
[2H]C([2H])([2H])C([2H])([2H])N(C(=O)[C@@H]1C=C2c3cccc4[nH]c(Br)c(c34)C[C@H]2N(C)C1)C([2H])([2H])C([2H])([2H])[2H]	31.1	44.6
[2H]c1c([2H])c2c3c(c(Br)[nH]c3c1[2H])C[C@@H]1C2=C[C@@H](C(=O)N(CC)CC)CN1C	26.3	52.6
[2H]C([2H])([2H])C([2H])([2H])N(C(=O)[C@@H]1C=C2c3cccc4[nH]cc(c34)C[C@H]2N(C)C1)C([2H])([2H])C([2H])([2H])[2H]	80.8	17.2
CCN(CC)C(=O)[C@@H]1C=C2c3cccc4[nH]c(Br)c(c34)C[C@H]2N(C)C1	24.6	56.3
[2H]c1[nH]c2c([2H])c([2H])c([2H])c3c2c1C[C@@H]1C3=C[C@@H](C(=O)N(CC)CC)CN1C	82.8	16.7
[2H]C([2H])([2H])N1C[C@H](C(=O)N(CC)CC)C=C2c3cccc4[nH]c(Br)c(c34)C[C@H]21	28.1	49.4
[2H]C([2H])([2H])N1C[C@H](C(=O)N(C([2H])([2H])C([2H])([2H])[2H])C([2H])([2H])C([2H])([2H])[2H])C=C2c3cccc4[nH]c(Br)c(c34)C[C@H]21	35.7	38.8
